Read-outs that look alike come from different tables or passages of the source. Numbered stars: 1 amine (or outer) side, 2 acyl side, 3 side chain; on linkers, the order of the positions; unused ones are H or OH. Bridge positions count the residues as written; N and C are the ends. Side chains are listed from the residue outwards. Peptide text beside a SMILES is read from it. * marks the point of attachment. C20 diacid = O=C(O)CCCCCCCCCCCCCCCCCCC(=O)*; γGlu = O=C(O)[C@H](CCC(=O)[*:2])N[*:1]
Legend:
[1] = molecular target: T1, human amylin receptor (amylin 3(a) receptor: human calcitonin receptor + RAMP-3) (Homo sapiens, UniProt O60896+P30988); assay: Assay (II)a functional assay, human amylin receptor (CRE luciferase, BHK cells); assay type: cell-based; details: for EC50: functional assay, human amylin receptor, read-out: hAmylin-R funct. EC50
T1 construct: expressed in transfected cells
T1 sequence (P30988 25-474): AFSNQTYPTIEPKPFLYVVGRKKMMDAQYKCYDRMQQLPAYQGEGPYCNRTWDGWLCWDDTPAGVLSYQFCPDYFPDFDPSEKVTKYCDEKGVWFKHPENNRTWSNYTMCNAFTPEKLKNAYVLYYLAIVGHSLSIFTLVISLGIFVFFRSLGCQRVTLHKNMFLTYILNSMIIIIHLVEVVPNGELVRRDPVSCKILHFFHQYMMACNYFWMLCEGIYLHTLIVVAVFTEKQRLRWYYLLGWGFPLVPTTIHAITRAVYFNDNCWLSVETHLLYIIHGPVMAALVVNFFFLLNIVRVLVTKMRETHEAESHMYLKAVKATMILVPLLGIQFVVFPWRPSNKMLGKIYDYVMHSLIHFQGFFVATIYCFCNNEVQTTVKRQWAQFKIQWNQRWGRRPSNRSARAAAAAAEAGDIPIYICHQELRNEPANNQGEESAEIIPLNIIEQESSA
T1 sequence (O60896 24-148 partner): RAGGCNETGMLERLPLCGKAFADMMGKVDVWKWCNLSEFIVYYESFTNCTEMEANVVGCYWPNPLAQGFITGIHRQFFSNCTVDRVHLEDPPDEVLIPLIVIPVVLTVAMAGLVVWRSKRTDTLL

[2] = molecular target: T2, human calcitonin receptor (Homo sapiens, UniProt P30988); assay: Assay (VII) binding to the human calcitonin receptor (SPA, 125I-Calcitonin); details: read-out: hCTR bind IC50;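 further: cell membranes coupled to SPA beads, competitive displacement read by scintillation counting, IC50 derived from a one-site competition fit as a measure of receptor affinity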
T2 construct: expressed in transfected cells
T2 sequence (P30988 25-474): T1 sequence (P30988 25-474)

human amylin receptor = molecular target: T3, human amylin receptor (Homo sapiens, UniProt O60896+P30988); assay: Assay (V) binding to the human amylin receptor (SPA, 125I-rat amylin); details: for IC50: read-out: hAmylin-R bind IC50; for Ratio hCT/hAmylin binding: human binding ratio, included for comparison
T3 construct: expressed in transfected cells
T3 sequence (P30988 25-474): T1 sequence (P30988 25-474)
T3 sequence (O60896 24-148 partner): T1 sequence (O60896 24-148 partner)
Method in brief: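 SPA competition binding on membranes from Amylin 3(a)/CRE-luc cells, 35 ng/μL membranes with 0.05 mg/well beads. Buffer 50 mM Hepes pH 7.4, 1 mM CaCl2, 5 mM MgCl2, 0.1% OA, 0.02% Tween20. IC50 from one-site competition fit as affinity measure.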

rat amylin receptor = molecular target: T4, rat amylin receptor (Rattus norvegicus, UniProt P32214+Q9JJ73); assay: Assay (VI) binding to the rat amylin receptor; details: rCTR bind IC50 divided by rAmylin-R bind IC50
T4 construct: expressed in transfected cells; host or cells: BHK tk'ts 13 (transient, FuGENE 6), membranes
T4 sequence (P32214 25-479 isoform P32214-2 limits assumed): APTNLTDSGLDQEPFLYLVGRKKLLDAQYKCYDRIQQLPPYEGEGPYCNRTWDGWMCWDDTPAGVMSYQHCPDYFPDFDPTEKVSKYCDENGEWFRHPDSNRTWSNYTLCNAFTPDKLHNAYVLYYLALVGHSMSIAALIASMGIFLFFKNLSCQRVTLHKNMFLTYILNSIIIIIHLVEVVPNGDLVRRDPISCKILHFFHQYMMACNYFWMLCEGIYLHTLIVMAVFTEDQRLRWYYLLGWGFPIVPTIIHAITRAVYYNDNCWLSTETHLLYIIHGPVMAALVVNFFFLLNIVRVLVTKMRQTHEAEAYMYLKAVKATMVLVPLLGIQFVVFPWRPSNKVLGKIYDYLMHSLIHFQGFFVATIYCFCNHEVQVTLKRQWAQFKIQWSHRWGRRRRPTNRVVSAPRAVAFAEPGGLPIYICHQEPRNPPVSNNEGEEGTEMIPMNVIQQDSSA
T4 sequence (Q9JJ73 23-147 partner): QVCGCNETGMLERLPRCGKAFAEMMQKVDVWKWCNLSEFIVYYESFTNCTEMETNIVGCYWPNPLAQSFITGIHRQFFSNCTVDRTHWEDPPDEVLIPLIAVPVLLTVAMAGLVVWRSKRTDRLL
Experimental: Assay (VI)—Determination of the Binding to the Rat Amylin Receptor
The assay was performed as described above (Assay (V)—Determination of binding to the human amylin receptor) with the exception that we used membranes prepared from BHK tk'ts 13 cells that were transiently transfected with the rat calcitonin receptor rat RAMP 3 at an equimolar ratio […]. The BHK tk'ts 13 cells were transiently transfected with rat calcitonin receptor using FuGENE® 6 (Roche), according to the manufacturer's recommendations. Cells were grown in DMEM with 10% FBS and 1% Pen/Strep. Approximately 48 hours after transfection, the cells were harvested and membranes were prepared.

[3] = molecular target: T2, human calcitonin receptor; assay: Assay (II)a functional assay, human calcitonin receptor (CRE luciferase, BHK cells);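 further: luminescence from a CRE-driven luciferase reporter, read by single photon counting after cells were exposed to test samples for 3 h at 37 °C under 5% CO2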; assay type: cell-based; details: read-out: hCTR funct. EC50
[4] = Table 6, human functional selectivity (hCTR EC50 / hAmylin-R EC50)
[5] = human amylin receptor membranes, SPA

Ratio hCT/hAmylin funct. [1, 4]	EC50 [1]	IC50 [2]	IC50 (human amylin receptor; [5])	Ratio hCT/hAmylin binding (human amylin receptor)	Ratio rCT/rAmylin binding (rat amylin receptor)	EC50 [3]	Ratio hCT/hAmylin funct. ([1]; Table 6a, human functional selectivity (hCTR EC50 / hAmylin-R EC50), at least 5)	Ratio hCT/hAmylin funct. ([1]; Table 6j, hCTR funct. EC50 / hAmylin-R funct. EC50)	Ratio hCT/hAmylin funct. ([1]; Table 6k, hCTR funct. EC50 / hAmylin-R funct. EC50)	Ratio rCT/rAmylin binding (rat amylin receptor; Table 7b)	Ratio hCT/hAmylin funct. ([1]; hCTR funct. EC50 divided by hAmylin-R funct. EC50)	IC50 (human amylin receptor; binding to human amylin receptor)	SMILES
0.9	0.105 nM	0.117 nM	0.214 nM	0.5	1.1	0.09 nM	–	–	–	–	–	–	CC[C@H](C)[C@H](NC(=O)[C@H](C)NC(=O)CNC(=O)[C@H](Cc1ccccc1)NC(=O)[C@H](CC(N)=O)NC(=O)[C@@H]1CCCN1C(=O)[C@H](CO)NC(=O)[C@H](CO)NC(=O)[C@H](Cc1c[nH]cn1)NC(=O)[C@H](CCCNC(=N)N)NC(=O)[C@H](CC(C)C)NC(=O)[C@H](Cc1ccccc1)NC(=O)[C@H](CCC(=O)O)NC(=O)[C@H](C)NC(=O)[C@H](CC(C)C)NC(=O)[C@H](CCCNC(=N)N)NC(=O)[C@H](CCC(N)=O)NC(=O)[C@@H](NC(=O)[C@H](C)NC(=O)[C@@H]1CSSC[C@H](NC(=O)[C@@H](N)CCCCNC(=O)CC[C@H](NC(=O)CCCCCCCCCCCCCCCCCCC(=O)O)C(=O)O)C(=O)N[C@@H](CC(N)=O)C(=O)N[C@@H]([C@@H](C)O)C(=O)N[C@@H](C)C(=O)N[C@@H]([C@@H](C)O)C(=O)N1)[C@@H](C)O)C(=O)N1CCC[C@H]1C(=O)N[C@@H](CO)C(=O)N[C@@H](CO)C(=O)N[C@H](C(=O)N[C@@H](CC(N)=O)C(=O)N[C@H](C(=O)NCC(=O)N1CCC[C@H]1C(=O)N[C@@H](CC(N)=O)C(=O)N[C@H](C(=O)N1CCC[C@H]1C(N)=O)[C@@H](C)O)C(C)C)[C@@H](C)O [Example 114] (H-K([γGlu-C20 diacid])CNTATCATQRLAEFLRHSSPNFGAIPSSTNVGPNTP-NH2; disulfide 2-7)
8.7	0.099 nM	8.01 nM	0.577 nM	–	67.0	0.857 nM	8.7	8.7	8.7	67.0	–	–	CC[C@H](C)[C@H](NC(=O)[C@H](C)NC(=O)CNC(=O)[C@H](Cc1ccccc1)NC(=O)[C@H](CC(N)=O)NC(=O)[C@@H]1CCCN1C(=O)[C@H](CO)NC(=O)[C@H](CO)NC(=O)[C@H](Cc1c[nH]cn1)NC(=O)[C@H](CCCNC(=N)N)NC(=O)[C@H](CC(C)C)NC(=O)[C@H](Cc1ccccc1)NC(=O)[C@H](CC(N)=O)NC(=O)[C@H](C)NC(=O)[C@H](CC(C)C)NC(=O)[C@H](CCCNC(=N)N)NC(=O)[C@H](CCC(N)=O)NC(=O)[C@@H](NC(=O)[C@H](C)NC(=O)[C@@H]1CSSC[C@H](NC(=O)[C@H](CCCCN)NC(=O)CC[C@H](NC(=O)CCCCCCCCCCCCCCCCCCC(=O)O)C(=O)O)C(=O)N[C@@H](CC(N)=O)C(=O)N[C@@H]([C@@H](C)O)C(=O)N[C@@H](C)C(=O)N[C@@H]([C@@H](C)O)C(=O)N1)[C@@H](C)O)C(=O)N1CCC[C@H]1C(=O)N[C@@H](CO)C(=O)N[C@@H](CO)C(=O)N[C@H](C(=O)N[C@@H](CC(N)=O)C(=O)N[C@H](C(=O)NCC(=O)N1CCC[C@H]1C(=O)N[C@@H](CCC(=O)O)C(=O)N[C@H](C(=O)N[C@@H](Cc1ccc(O)cc1)C(N)=O)[C@@H](C)O)C(C)C)[C@@H](C)O [Example 29] ({C20 diacid-γGlu}-KCNTATCATQRLANFLRHSSPNFGAIPSSTNVGPETY-NH2; disulfide 2-7)
1.8	0.101 nM	0.353 nM	0.142 nM	2.5	5.0	0.185 nM	–	–	–	–	–	–	CC[C@H](C)[C@H](NC(=O)[C@H](C)NC(=O)CNC(=O)[C@H](Cc1ccccc1)NC(=O)[C@H](CC(N)=O)NC(=O)[C@@H]1CCCN1C(=O)[C@H](CO)NC(=O)[C@H](CO)NC(=O)[C@H](Cc1c[nH]cn1)NC(=O)[C@H](CCCNC(=N)N)NC(=O)[C@H](CC(C)C)NC(=O)[C@H](Cc1ccccc1)NC(=O)[C@H](CCC(=O)O)NC(=O)[C@H](C)NC(=O)[C@H](CC(C)C)NC(=O)[C@H](CCCNC(=N)N)NC(=O)[C@H](CCC(N)=O)NC(=O)[C@@H](NC(=O)[C@H](C)NC(=O)[C@@H]1CSSC[C@H](NC(=O)[C@@H](N)CCCCNC(=O)CC[C@H](NC(=O)CCCCCCCCCCCCCCCCCCC(=O)O)C(=O)O)C(=O)N[C@@H](CC(N)=O)C(=O)N[C@@H]([C@@H](C)O)C(=O)N[C@@H](C)C(=O)N[C@@H]([C@@H](C)O)C(=O)N1)[C@@H](C)O)C(=O)N1CCC[C@H]1C(=O)N[C@@H](CO)C(=O)N[C@@H](CO)C(=O)N[C@H](C(=O)N[C@@H](CC(N)=O)C(=O)N[C@H](C(=O)NCC(=O)N[C@@H](CO)C(=O)N[C@@H](CC(N)=O)C(=O)N[C@H](C(=O)N1CCC[C@H]1C(N)=O)[C@@H](C)O)C(C)C)[C@@H](C)O [Example 12] (H-K([γGlu-C20 diacid])CNTATCATQRLAEFLRHSSPNFGAIPSSTNVGSNTP-NH2; disulfide 2-7)
1.0	0.162 nM	0.537 nM	0.374 nM	1.4	3.6	0.16 nM	–	–	–	–	1.0	0.374 nM	CC(C)C[C@H](NC(=O)[C@H](CCCNC(=N)N)NC(=O)[C@H](CCC(N)=O)NC(=O)[C@@H](NC(=O)[C@H](C)NC(=O)[C@@H]1CSSC[C@H](NC(=O)[C@H](CCCCN)NC(=O)CC[C@H](NC(=O)CCCCCCCCCCCCCCCCCCC(=O)O)C(=O)O)C(=O)N[C@@H](CC(N)=O)C(=O)N[C@@H]([C@@H](C)O)C(=O)N[C@@H](C)C(=O)N[C@@H]([C@@H](C)O)C(=O)N1)[C@@H](C)O)C(=O)N[C@@H](C)C(=O)N[C@@H](CCC(=O)O)C(=O)N[C@@H](Cc1ccccc1)C(=O)N[C@@H](CC(C)C)C(=O)N[C@@H](CCCNC(=N)N)C(=O)N[C@@H](Cc1c[nH]cn1)C(=O)N[C@@H](CO)C(=O)N[C@@H](CO)C(=O)N1CCC[C@H]1C(=O)N[C@@H](CC(N)=O)C(=O)N[C@@H](Cc1ccccc1)C(=O)NCC(=O)N[C@@H](C)C(=O)N1CCC[C@H]1C(=O)N[C@@H](CC(C)C)C(=O)N[C@@H](CO)C(=O)N[C@@H](CO)C(=O)N[C@H](C(=O)N[C@@H](CC(N)=O)C(=O)N[C@H](C(=O)NCC(=O)N[C@@H](CO)C(=O)N[C@@H](CC(N)=O)C(=O)N[C@H](C(=O)N1CCC[C@H]1C(N)=O)[C@@H](C)O)C(C)C)[C@@H](C)O [Example 5] ({C20 diacid-γGlu}-KCNTATCATQRLAEFLRHSSPNFGAPLSSTNVGSNTP-NH2; disulfide 2-7)

Source: patent US8575091B1, “Amylin analogues and pharmaceutical compositions thereof” (Novo Nordisk A/S, priority 2012, dated 2013)
